Results from the supplement of paper PMC10307832.

Assays:
Assay in all cases: relative viability (nuclei count vs DMSO), 5 days (fraction); higher = more cells survive
RU-SKI 43 + OSI-027 = compound: CC[C@@H](C)CNCC(=O)N1CCC2=C([C@@H]1COC3=CC=CC(=C3)C)C=CS2 [RU-SKI 43] + COc1cccc2cc(-c3nc([C@H]4CC[C@H](C(=O)O)CC4)n4ncnc(N)c34)[nH]c12 [OSI-027] (partner 0.5 µM)
Summary of the method: (§1)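 Dosing by pin tool came one day after lung cancer cell lines were seeded in 1536-well plates, using either one drug or a fixed anchor-drug dose plus five library-drug doses (not always all listed) in √10 steps. After 5 days, nuclei were counted on 4× images. Relative viability is treated-well nuclei count divided by vehicle-well nuclei count, and values are medians of duplicate plates.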

RU-SKI 43 + Phenformin = compound: CC[C@@H](C)CNCC(=O)N1CCC2=C([C@@H]1COC3=CC=CC(=C3)C)C=CS2 [RU-SKI 43] + N=C(N)NC(=N)NCCc1ccccc1 [Phenformin] (partner 250 µM)
Summary of the method: as §1

Irinotecan + Bortezomib = compound: CCc1c2c(nc3ccc(OC(=O)N4CCC(N5CCCCC5)CC4)cc13)-c1cc3c(c(=O)n1C2)COC(=O)[C@]3(O)CC [Irinotecan] + CC(C)C[C@H](NC(=O)[C@H](Cc1ccccc1)NC(=O)c1cnccn1)B(O)O [Bortezomib] (partner 0.002 µM)
Summary of the method: as §1

MK-8033 + Bortezomib = compound: Cn1cc(-c2cnc3ccc4ccc(CS(=O)(=O)NCc5ccccn5)cc4c(=O)c3c2)cn1 [MK-8033] + CC(C)C[C@H](NC(=O)[C@H](Cc1ccccc1)NC(=O)c1cnccn1)B(O)O [Bortezomib] (partner 0.002 µM)
Summary of the method: as §1

| Cell Line | relative viability (RU-SKI 43 + OSI-027; first compound 0.1 µM) | relative viability (RU-SKI 43 + OSI-027; first compound 0.3162 µM) | relative viability (RU-SKI 43 + OSI-027; first compound 1 µM) | relative viability (RU-SKI 43 + OSI-027; first compound 3.162 µM) | relative viability (RU-SKI 43 + OSI-027; first compound 10 µM) | relative viability (RU-SKI 43 + Phenformin; first compound 0.1 µM) | relative viability (RU-SKI 43 + Phenformin; first compound 0.3162 µM) | relative viability (RU-SKI 43 + Phenformin; first compound 1 µM) | relative viability (RU-SKI 43 + Phenformin; first compound 3.162 µM) | relative viability (RU-SKI 43 + Phenformin; first compound 10 µM) | relative viability (Irinotecan + Bortezomib; first compound 0.6325 µM) | relative viability (Irinotecan + Bortezomib; first compound 2 µM) | relative viability (Irinotecan + Bortezomib; first compound 6.325 µM) | relative viability (Irinotecan + Bortezomib; first compound 20 µM) | relative viability (MK-8033 + Bortezomib; first compound 0.02 µM) | relative viability (MK-8033 + Bortezomib; first compound 0.06325 µM) | relative viability (MK-8033 + Bortezomib; first compound 0.2 µM) | relative viability (MK-8033 + Bortezomib; first compound 0.6325 µM) | relative viability (MK-8033 + Bortezomib; first compound 2 µM) |
| --- | --- | --- | --- | --- | --- | --- | --- | --- | --- | --- | --- | --- | --- | --- | --- | --- | --- | --- | --- |
| NCI-H1650 | 0.597 | 0.584 | 0.835 | 0.618 | 0.618 | 0.423 | 0.314 | 0.445 | 0.386 | 0.336 | 0.188 | 0.198 | 0.244 | 0.133 | 0.198 | 0.181 | 0.197 | 0.234 | 0.218 |
| NCI-H1651 | 0.838 | 0.768 | 0.878 | 0.764 | 0.846 | 0.351 | 0.418 | 0.363 | 0.342 | 0.277 | – | 0.849 | 0.553 | 0.227 | 0.988 | 0.868 | 0.968 | 0.999 | 1.02 |
| NCI-H1666 | 0.897 | 0.87 | 0.85 | 0.858 | 0.752 | 0.58 | 0.574 | 0.518 | 0.519 | 0.53 | 0.608 | 0.419 | 0.414 | 0.214 | 0.766 | 0.722 | 0.886 | 0.822 | 0.806 |
| NCI-H1734 | 0.498 | 0.638 | 0.603 | 0.671 | 0.534 | 0.43 | 0.385 | 0.44 | 0.35 | 0.38 | 0.797 | 0.674 | 0.207 | 0.174 | 1.14 | 0.814 | 0.871 | 0.898 | 0.916 |
| NCI-H1755 | 0.757 | 0.825 | 0.781 | 0.841 | 0.699 | 0.648 | 0.613 | 0.63 | 0.644 | 0.666 | 0.9 | 0.935 | 0.355 | 0.327 | 0.987 | 0.834 | 0.933 | 0.849 | 0.835 |
| NCI-H1792 | 0.682 | 1.05 | 0.969 | 0.939 | 0.707 | 0.267 | – | 0.4 | – | 0.227 | 0.955 | 1.17 | 0.486 | 0.192 | 1 | 0.96 | 0.966 | 0.525 | 0.954 |
| NCI-H1915 | 0.641 | 0.706 | 0.703 | 0.686 | 0.614 | 0.391 | 0.445 | 0.365 | 0.376 | 0.361 | 0.537 | 0.445 | 0.24 | 0.148 | 1 | 0.911 | 0.975 | 1.03 | 0.952 |
| NCI-H1975 | 0.749 | 0.829 | 1.02 | 0.779 | 0.604 | 0.385 | 0.468 | 0.444 | 0.422 | 0.404 | 0.294 | 0.31 | 0.278 | 0.129 | 0.386 | 0.328 | 0.365 | 0.429 | 0.367 |
| NCI-H1993 | 0.53 | 0.527 | 0.596 | 0.59 | 0.575 | 0.526 | 0.5 | 0.471 | 0.511 | 0.487 | 1.1 | 0.968 | 0.613 | 0.399 | 0.498 | 0.804 | 0.794 | 0.816 | 0.853 |
| NCI-H2009 | 0.69 | 0.599 | 0.698 | 0.699 | 0.601 | 0.49 | 0.514 | 0.519 | 0.474 | 0.424 | 0.294 | 0.515 | 0.228 | 0.0808 | 1.03 | 1.09 | 0.954 | 0.95 | 0.984 |
| NCI-H2023 | 0.442 | 0.455 | 0.465 | 0.413 | 0.372 | 0.421 | 0.471 | 0.466 | 0.43 | 0.396 | 0.435 | 0.686 | 0.162 | 0.0682 | 1.06 | 0.89 | 0.852 | 0.96 | 0.778 |
| NCI-H2085 | 0.705 | 0.678 | 0.696 | 0.834 | 0.552 | 0.758 | 0.652 | 0.709 | 0.698 | 0.631 | 0.847 | 1.01 | 0.535 | 0.494 | 0.956 | 0.941 | 0.98 | 1.08 | 0.963 |
| NCI-H2087 | 0.666 | 0.56 | 0.705 | 0.563 | 0.516 | 0.46 | 0.552 | 0.477 | 0.526 | 0.406 | 0.442 | 0.476 | 0.18 | 0.248 | 0.877 | 0.77 | 0.828 | 0.687 | 0.829 |
| NCI-H2126 | 0.681 | 0.627 | 0.777 | 0.678 | 0.715 | 0.593 | 0.517 | 0.59 | 0.589 | 0.546 | – | 1.08 | 0.632 | 0.34 | 1.17 | 1.11 | 1.01 | 1.06 | 1.07 |
| NCI-H2228 | 0.651 | 0.722 | 0.483 | 0.689 | 0.471 | 0.239 | 0.407 | 0.237 | 0.329 | 0.278 | 0.689 | 0.685 | 0.514 | 0.343 | 1.04 | 0.932 | 1.08 | 0.998 | 1.06 |
| NCI-H2347 | 0.414 | 0.414 | 0.697 | 0.389 | 0.328 | 0.34 | 0.352 | 0.544 | 0.36 | 0.383 | 0.512 | 0.918 | 0.493 | 0.555 | 1.1 | 0.999 | 0.846 | 1.03 | 1.08 |
| NCI-H2405 | 0.618 | 0.56 | 0.615 | 0.684 | 0.569 | 0.37 | 0.371 | 0.413 | 0.379 | 0.358 | 0.573 | 0.931 | 0.662 | 0.299 | 1 | 0.961 | 0.932 | 0.771 | 1.03 |
| NCI-H3122 | 1.02 | 1.23 | 1.31 | 1.01 | 0.96 | 0.394 | 0.376 | 0.411 | 0.379 | 0.37 | 1.05 | 0.824 | 0.252 | 0.259 | 1.08 | 1.01 | 0.982 | 0.999 | 0.941 |
| PC-3 [JPC-3] | 0.682 | 0.862 | 0.797 | 0.804 | 0.366 | 0.466 | 0.484 | 0.457 | 0.52 | 0.511 | 0.703 | 0.826 | 0.579 | 0.296 | 0.813 | – | 0.778 | 0.848 | 0.943 |
| PC-14 | 0.844 | 1.07 | 0.93 | 0.965 | 0.75 | 0.646 | 0.468 | 0.841 | 0.457 | 0.651 | 0.831 | 0.802 | 0.178 | 0.158 | 0.898 | 0.742 | 0.816 | 0.809 | 0.772 |
| RERF-LC-KJ | 0.505 | 0.514 | 0.603 | 0.56 | 0.548 | 0.374 | 0.418 | 0.347 | 0.417 | 0.346 | – | 1.16 | 0.563 | 0.468 | 1.08 | 1.21 | 1.04 | 1.19 | 1.03 |
| SK-LU-1 | 0.324 | 0.375 | 0.342 | 0.361 | 0.317 | 0.531 | 0.689 | 0.555 | 0.715 | 0.502 | 0.887 | 0.672 | 0.291 | 0.47 | 1.31 | 0.955 | 1.32 | 0.883 | 1.18 |
| SW 1573 | 0.634 | 0.797 | 0.682 | 0.741 | 0.611 | 0.432 | 0.35 | 0.42 | 0.381 | 0.31 | 0.803 | 0.745 | 0.189 | 0.162 | 1.08 | – | 0.902 | 0.988 | 1.05 |
